Data on three compounds can be found in ChEMBL document CHEMBL5653631, “A Potent and Selective ULK1 Inhibitor Suppresses Autophagy and Sensitizes Cancer Cells to Nutrient Stress” (iScience, 2018).

Experiment [1] has as its target T1, Homeodomain-interacting protein kinase 4 (Homo sapiens) (UniProt Q8NE63).
T1 sequence (whole entry): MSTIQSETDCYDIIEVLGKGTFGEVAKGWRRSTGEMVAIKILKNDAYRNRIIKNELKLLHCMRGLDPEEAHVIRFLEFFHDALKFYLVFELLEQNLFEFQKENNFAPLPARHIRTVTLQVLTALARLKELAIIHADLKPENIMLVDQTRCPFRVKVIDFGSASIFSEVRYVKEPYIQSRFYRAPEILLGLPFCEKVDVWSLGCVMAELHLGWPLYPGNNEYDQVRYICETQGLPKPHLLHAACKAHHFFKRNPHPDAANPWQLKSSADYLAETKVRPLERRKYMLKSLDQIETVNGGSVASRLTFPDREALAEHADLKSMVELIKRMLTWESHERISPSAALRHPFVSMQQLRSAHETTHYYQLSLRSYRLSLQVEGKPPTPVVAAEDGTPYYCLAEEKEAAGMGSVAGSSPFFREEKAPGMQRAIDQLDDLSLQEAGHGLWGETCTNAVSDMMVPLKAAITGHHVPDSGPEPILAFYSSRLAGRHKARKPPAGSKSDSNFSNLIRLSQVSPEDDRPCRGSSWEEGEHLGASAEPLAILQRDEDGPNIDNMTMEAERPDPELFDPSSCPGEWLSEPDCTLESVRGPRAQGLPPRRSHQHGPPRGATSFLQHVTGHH
The experiment in a line: Inhibition of human recombinant HIPK4 at 15 nM related to control ULK1.

The target of experiment [2] is Calcium/calmodulin-dependent protein kinase type II subunit delta (Homo sapiens) (UniProt Q13557). The experiment can be described thus: Inhibition of human recombinant CaMK2d at 15 nM in presence of ATP by radiometric assay relative to control.
The target of experiment [3] is Mitogen-activated protein kinase kinase kinase kinase 1 (Homo sapiens) (UniProt Q92918). The experiment can be described thus: Inhibition of human recombinant HPK1 at 40 nM related to control ULK1.
For experiment [4], the target named is T2, Ephrin type-B receptor 4 (Homo sapiens) (UniProt P54760).
T2 sequence (whole entry): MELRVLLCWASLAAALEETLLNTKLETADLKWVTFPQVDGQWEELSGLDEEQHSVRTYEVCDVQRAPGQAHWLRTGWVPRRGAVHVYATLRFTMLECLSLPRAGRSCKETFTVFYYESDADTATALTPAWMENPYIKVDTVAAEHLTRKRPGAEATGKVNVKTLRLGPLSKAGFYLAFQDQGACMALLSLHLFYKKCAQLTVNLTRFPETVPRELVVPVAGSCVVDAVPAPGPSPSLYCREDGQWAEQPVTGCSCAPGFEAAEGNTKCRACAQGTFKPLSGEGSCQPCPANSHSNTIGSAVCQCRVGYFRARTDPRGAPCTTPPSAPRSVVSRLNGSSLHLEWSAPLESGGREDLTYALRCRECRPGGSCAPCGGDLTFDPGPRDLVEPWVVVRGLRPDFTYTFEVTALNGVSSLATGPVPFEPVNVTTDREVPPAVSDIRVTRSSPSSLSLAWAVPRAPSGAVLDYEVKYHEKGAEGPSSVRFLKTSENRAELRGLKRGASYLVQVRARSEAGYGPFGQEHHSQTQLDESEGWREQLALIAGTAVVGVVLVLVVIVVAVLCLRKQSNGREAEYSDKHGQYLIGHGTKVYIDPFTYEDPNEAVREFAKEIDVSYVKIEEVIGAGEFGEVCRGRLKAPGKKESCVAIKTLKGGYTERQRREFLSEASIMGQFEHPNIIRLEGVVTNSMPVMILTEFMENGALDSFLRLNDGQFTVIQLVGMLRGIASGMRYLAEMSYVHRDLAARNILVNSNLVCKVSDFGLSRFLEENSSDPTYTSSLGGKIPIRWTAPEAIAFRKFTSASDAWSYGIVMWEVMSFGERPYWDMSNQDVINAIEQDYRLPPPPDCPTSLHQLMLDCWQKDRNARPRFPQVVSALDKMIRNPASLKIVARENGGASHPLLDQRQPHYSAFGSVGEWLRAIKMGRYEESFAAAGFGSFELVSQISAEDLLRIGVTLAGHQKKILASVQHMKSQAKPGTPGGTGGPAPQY
The experiment in a line: Inhibition of human recombinant EphB4 at 40 nM in presence of ATP by radiometric assay relative to control.

The target of experiment [5] is Homeodomain-interacting protein kinase 1 (Homo sapiens) (UniProt Q86Z02). The experiment in a line: Inhibition of human recombinant HIPK1 at 40 nM in presence of ATP by radiometric assay relative to control.
The target in experiment [6] is T3, Serine/threonine-protein kinase DCLK2 (Homo sapiens) (UniProt Q8N568).
T3 sequence (whole entry): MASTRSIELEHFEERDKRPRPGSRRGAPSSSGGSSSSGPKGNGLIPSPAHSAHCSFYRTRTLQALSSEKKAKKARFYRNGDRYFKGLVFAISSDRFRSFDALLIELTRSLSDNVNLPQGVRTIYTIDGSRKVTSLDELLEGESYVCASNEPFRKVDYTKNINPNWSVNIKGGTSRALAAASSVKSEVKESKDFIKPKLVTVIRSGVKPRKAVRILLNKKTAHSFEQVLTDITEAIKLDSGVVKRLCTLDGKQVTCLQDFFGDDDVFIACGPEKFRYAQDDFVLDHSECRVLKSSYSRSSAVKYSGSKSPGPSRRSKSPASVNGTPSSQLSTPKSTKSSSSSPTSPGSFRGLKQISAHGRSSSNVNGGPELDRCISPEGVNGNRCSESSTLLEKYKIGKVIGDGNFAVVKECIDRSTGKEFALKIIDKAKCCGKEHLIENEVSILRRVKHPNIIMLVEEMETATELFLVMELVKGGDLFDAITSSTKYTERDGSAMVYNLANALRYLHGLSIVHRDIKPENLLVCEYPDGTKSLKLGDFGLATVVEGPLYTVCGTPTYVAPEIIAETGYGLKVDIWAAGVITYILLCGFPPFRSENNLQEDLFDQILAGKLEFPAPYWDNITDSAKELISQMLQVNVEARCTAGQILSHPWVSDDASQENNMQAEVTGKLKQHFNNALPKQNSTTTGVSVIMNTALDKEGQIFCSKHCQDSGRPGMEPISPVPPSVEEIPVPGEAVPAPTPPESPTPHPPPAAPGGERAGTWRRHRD
The experiment can be described thus: Inhibition of human recombinant DCAMKL2 at 500 nM related to control ULK1.

For experiment [7], the target named is RAF proto-oncogene serine/threonine-protein kinase (Homo sapiens) (UniProt P04049). The experiment in a line: Inhibition of human recombinant RAF1 at 500 nM in presence of ATP by radiometric assay relative to control.
Experiment [8] has as its target Serine/threonine-protein kinase PLK1 (Homo sapiens) (UniProt P53350). The experiment can be described thus: Inhibition of human recombinant PLK1 at 500 nM related to control ULK1.
The target of experiment [9] is G protein-coupled receptor kinase 5 (Homo sapiens) (UniProt P34947). The experiment can be described thus: Inhibition of human recombinant GPRK5 at 500 nM in presence of ATP by radiometric assay relative to control.
Experiment [10] has as its target Receptor-interacting serine/threonine-protein kinase 2 (Homo sapiens) (UniProt O43353). The experiment can be described thus: Inhibition of human recombinant RIPK2 at 500 nM in presence of ATP by radiometric assay relative to control.

In general, inhibition refers to the relative decrease from the control value, in per cent.

Homeodomain-interacting protein kinase 1 (Homo sapiens), sequence (Q86Z02 whole entry, looked up): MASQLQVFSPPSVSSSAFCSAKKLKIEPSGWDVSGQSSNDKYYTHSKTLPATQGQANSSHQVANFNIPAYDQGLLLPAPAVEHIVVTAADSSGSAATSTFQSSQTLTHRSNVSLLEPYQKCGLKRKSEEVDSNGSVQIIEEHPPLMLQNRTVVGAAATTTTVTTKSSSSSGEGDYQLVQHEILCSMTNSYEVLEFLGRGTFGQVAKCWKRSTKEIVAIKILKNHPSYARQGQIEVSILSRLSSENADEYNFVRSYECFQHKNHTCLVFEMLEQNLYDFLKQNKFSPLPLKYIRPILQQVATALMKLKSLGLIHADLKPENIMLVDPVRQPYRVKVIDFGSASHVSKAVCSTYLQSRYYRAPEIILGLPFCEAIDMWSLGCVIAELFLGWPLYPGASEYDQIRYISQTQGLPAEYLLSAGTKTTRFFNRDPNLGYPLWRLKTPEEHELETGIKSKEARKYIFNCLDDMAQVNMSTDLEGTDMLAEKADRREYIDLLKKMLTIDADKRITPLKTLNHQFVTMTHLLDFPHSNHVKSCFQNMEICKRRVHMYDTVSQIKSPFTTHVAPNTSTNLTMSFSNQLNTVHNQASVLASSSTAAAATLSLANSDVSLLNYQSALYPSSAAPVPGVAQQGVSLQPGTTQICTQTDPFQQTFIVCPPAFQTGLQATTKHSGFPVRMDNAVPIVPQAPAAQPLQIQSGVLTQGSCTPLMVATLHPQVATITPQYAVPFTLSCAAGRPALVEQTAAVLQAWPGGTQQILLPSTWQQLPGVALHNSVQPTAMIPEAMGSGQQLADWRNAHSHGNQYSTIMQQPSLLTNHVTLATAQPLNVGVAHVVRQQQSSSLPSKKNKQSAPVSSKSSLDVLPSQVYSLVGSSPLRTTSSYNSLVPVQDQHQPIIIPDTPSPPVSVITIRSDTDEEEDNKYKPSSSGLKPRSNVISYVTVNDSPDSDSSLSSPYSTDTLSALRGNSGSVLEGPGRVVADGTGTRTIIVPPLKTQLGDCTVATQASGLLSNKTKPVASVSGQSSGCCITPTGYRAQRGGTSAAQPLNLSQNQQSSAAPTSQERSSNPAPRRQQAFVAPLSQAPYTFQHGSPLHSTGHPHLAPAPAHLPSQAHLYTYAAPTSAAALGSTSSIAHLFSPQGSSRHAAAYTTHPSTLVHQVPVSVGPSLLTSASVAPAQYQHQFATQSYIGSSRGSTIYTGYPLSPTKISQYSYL
Receptor-interacting serine/threonine-protein kinase 2 (Homo sapiens), sequence (O43353 whole entry): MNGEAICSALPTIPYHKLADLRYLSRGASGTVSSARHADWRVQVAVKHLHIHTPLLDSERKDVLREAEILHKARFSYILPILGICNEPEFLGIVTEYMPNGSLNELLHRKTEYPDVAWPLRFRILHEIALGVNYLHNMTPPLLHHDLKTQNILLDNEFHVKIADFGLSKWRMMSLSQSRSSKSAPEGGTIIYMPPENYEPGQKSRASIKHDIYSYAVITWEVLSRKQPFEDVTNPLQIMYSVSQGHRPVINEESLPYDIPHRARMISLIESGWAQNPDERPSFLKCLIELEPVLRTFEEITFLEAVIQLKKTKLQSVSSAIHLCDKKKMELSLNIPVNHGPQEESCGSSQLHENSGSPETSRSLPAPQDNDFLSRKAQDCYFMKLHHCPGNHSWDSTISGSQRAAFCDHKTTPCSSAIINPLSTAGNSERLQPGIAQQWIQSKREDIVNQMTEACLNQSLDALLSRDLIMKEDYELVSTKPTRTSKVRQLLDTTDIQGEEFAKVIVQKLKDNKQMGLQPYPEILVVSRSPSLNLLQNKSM
Serine/threonine-protein kinase PLK1 (Homo sapiens), sequence (P53350 whole entry): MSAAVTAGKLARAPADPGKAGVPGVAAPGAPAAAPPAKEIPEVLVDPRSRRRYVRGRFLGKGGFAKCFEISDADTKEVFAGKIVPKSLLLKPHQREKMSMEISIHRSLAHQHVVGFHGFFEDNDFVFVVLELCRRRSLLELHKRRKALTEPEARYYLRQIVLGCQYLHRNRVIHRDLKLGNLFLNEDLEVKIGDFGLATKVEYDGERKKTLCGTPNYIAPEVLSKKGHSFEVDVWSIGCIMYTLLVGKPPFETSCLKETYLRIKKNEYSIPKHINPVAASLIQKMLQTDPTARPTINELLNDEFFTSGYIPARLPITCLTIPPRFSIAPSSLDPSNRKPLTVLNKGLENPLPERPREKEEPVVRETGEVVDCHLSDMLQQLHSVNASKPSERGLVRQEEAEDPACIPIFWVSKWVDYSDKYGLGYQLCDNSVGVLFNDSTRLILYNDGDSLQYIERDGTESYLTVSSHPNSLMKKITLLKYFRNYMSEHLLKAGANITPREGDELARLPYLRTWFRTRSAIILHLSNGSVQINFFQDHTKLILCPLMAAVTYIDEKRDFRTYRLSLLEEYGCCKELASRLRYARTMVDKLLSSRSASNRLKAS
RAF proto-oncogene serine/threonine-protein kinase (Homo sapiens), sequence (P04049 whole entry): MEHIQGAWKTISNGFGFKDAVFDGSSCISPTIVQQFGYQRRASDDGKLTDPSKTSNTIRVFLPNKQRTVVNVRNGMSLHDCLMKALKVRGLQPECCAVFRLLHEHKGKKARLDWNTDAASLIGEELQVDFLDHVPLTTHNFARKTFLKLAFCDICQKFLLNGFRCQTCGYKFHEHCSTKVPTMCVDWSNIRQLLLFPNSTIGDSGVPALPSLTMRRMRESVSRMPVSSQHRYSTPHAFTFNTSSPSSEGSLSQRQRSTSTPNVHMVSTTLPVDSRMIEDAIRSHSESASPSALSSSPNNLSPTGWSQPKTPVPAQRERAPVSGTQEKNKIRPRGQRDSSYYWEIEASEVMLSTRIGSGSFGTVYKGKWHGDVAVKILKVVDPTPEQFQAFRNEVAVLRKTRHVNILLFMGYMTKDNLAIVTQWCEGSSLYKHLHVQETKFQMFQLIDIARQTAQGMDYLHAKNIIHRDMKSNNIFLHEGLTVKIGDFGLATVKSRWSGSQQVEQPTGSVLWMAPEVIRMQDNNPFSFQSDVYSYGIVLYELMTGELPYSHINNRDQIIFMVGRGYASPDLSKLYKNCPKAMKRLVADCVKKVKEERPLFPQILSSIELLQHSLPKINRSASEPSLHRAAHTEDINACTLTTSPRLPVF
G protein-coupled receptor kinase 5 (Homo sapiens), sequence (P34947 whole entry, looked up): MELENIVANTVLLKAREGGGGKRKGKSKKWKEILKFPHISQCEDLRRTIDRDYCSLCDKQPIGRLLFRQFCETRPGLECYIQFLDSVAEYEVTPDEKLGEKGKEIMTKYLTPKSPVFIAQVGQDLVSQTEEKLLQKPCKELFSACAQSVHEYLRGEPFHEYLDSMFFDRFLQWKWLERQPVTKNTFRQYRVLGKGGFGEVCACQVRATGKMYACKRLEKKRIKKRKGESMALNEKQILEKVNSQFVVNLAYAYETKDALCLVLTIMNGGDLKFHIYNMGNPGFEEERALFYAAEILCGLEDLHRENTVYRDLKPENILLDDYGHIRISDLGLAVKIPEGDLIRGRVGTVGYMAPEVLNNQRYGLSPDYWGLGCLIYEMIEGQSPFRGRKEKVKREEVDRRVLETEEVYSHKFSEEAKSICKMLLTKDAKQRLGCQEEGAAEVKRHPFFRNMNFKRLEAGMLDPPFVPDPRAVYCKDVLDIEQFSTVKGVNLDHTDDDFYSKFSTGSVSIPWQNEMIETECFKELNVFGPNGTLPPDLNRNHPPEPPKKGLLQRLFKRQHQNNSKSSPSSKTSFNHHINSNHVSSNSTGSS
Mitogen-activated protein kinase kinase kinase kinase 1 (Homo sapiens), sequence (Q92918 whole entry, looked up): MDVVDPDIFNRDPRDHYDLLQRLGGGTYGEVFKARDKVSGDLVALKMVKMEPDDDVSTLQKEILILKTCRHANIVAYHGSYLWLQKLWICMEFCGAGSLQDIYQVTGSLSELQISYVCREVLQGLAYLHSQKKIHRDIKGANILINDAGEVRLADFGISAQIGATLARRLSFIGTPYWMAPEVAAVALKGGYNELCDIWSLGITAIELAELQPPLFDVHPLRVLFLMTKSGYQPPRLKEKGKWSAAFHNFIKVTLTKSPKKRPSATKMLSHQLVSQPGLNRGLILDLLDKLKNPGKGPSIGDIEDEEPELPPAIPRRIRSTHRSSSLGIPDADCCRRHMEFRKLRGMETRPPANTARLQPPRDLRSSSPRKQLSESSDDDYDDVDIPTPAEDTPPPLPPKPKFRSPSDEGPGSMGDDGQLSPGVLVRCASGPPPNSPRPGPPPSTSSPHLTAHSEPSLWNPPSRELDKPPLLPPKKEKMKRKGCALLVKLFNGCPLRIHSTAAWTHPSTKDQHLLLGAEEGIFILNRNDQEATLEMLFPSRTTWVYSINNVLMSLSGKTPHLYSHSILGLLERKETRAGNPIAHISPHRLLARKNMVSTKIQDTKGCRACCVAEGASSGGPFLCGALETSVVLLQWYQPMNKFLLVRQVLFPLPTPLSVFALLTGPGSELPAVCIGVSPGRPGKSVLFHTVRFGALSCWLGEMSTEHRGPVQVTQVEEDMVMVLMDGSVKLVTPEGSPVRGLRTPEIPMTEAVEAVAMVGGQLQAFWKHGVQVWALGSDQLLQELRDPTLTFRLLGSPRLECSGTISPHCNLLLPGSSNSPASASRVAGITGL
Calcium/calmodulin-dependent protein kinase type II subunit delta (Homo sapiens), sequence (Q13557 whole entry): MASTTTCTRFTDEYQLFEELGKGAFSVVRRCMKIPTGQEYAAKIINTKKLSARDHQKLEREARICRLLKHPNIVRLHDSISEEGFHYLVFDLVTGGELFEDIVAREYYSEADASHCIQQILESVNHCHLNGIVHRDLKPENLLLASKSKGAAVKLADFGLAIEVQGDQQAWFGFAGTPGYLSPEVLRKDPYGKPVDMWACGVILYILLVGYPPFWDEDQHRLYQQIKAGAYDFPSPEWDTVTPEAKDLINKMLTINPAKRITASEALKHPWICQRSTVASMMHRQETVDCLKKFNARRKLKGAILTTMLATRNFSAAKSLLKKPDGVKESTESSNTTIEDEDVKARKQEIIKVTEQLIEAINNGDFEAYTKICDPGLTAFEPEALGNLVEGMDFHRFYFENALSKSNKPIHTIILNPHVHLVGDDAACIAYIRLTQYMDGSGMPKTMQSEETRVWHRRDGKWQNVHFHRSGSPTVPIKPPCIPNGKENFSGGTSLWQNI

For `CC(C)[C@H](NC(=O)c1cc(-c2cnn3cc(-c4ccc(OCCN5CCCCC5)cc4)cnc23)cs1)C(F)(F)F`, in experiment [1], the fold change (FC) was 0. In experiment [2], the inhibition is 20%.
Take `O=C(N[C@@H](C1CC1)C(F)(F)F)c1cc(-c2cnn3cc(-c4ccc(F)cc4)cnc23)cs1`: the fold change (FC) in experiment [3] is 0. Further, the inhibition in experiment [4] and in experiment [5] was 0% in each case.
In the case of `CNC(=O)c1ccccc1Oc1nc(Nc2cc(OC)c(OC)c(OC)c2)ncc1Br`, the fold change (FC) in experiment [6] and in [8] was 0 in each case. The inhibition in experiment [7] was found to be 11%; in [9], 1%; in [10], 0%.
